Reference: publication PMC11587510, “Aromatic Amino Acid Hydroxylases as Off-Targets of Histone Deacetylase Inhibitors” (ACS Chemical Neuroscience, 2024)
Values joined by “and” are separate entries in the source; they are usually repeats but may differ in a detail not shown here. Equal entries are not always repeated. Where two headings read alike, the source gives them in different places.

Key:
[1] = molecular target: T1, human TH isoform 1 (TH1) (Homo sapiens, UniProt P07101); test: TH enzyme activity assay (HPLC, L-DOPA); assay type: biochemical; conditions: best-fit IC50 (± SE), nonlinear regression; N.A. = no activity
T1 construct: Full-length human TH isoform 1 (TH1); His6-ZZ fusion partner (one of the two preparations only) (cleaved yes); made in house; host or cells: E. coli BL21(DE3) pLysS (pET3a) or BL21 CodonPlus (pET-ZZ-1a)
Method: The activity of purified PAH, TH, TPH1, and TPH2 was measured using high-performance liquid chromatography (HPLC) as previously described.[50],[56],[57]
TH activities were performed in a standard reaction mixture containing 40 mM Hepes (pH 7.0), 0.1 mg/mL catalase, 10 μM ferrous ammonium sulfate, and 50 μM L-Tyr. Compounds were incubated with TH (0.01 mg/mL) in the reaction mixture for 10 min on ice. The enzymatic reaction was initiated by adding 200 μM BH4 and 2 mM DTT (final concentrations) and stopped by precipitation with 2% (v/v) acetic acid in ethanol after 5 min at 37 °C. The product, L-DOPA, was quantified by HPLC utilizing a fluorescence monitor set at 281 and 314 nm for excitation and emission, respectively.
GraphPad Prism (version 10; La Jolla, CA) was used for analyzing the enzyme inhibition data.

[2] = molecular target: T2, doubly truncated human TPH1 (ΔNH102-ΔCOOH402) (Homo sapiens, UniProt P17752); test: TPH1 enzyme activity assay (HPLC, 5-OH-Trp); assay type: biochemical; conditions: for IC50: best-fit IC50 (± SE), nonlinear regression, N.A. = no activity
T2 construct: doubly truncated human TPH1 (ΔNH102-ΔCOOH402); made in house; host or cells: E. coli BL21(DE3)

[3] = molecular target: T3, human TPH2 (Homo sapiens, UniProt Q8IWU9); test: TPH2 enzyme activity assay (HPLC); assay type: biochemical; conditions: best-fit IC50 (± SE), nonlinear regression; N.A. = no activity
T3 construct: Full-length human TH isoform 1 (TH1), human PAH, human TPH2, and doubly truncated human TPH1; MBP (cleaved yes); made in house; host or cells: E. coli BL21(DE3)
T3 sequence (Q8IWU9 1-490): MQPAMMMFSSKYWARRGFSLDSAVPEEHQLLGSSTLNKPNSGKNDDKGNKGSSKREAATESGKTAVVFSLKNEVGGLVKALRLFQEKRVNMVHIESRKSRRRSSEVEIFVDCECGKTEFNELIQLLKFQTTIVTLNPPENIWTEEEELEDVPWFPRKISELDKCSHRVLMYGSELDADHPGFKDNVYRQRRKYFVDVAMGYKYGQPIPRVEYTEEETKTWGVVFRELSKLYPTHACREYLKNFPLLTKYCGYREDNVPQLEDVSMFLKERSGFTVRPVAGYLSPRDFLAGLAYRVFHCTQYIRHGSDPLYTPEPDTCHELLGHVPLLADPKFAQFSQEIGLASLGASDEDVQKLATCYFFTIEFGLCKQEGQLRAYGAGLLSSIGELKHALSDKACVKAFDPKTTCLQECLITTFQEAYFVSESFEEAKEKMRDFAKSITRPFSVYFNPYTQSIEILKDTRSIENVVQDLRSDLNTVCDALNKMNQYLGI

[4] = system: HDAC 8; conditions: human recombinant HDAC, cited from earlier work
[5] = system: HDAC 6; conditions: cited from earlier work
[6] = molecular target: T4, human PAH (Homo sapiens, UniProt P00439); test: PAH enzyme activity assay (HPLC, L-Tyr); assay type: biochemical; conditions: best-fit IC50 (± SE), nonlinear regression; N.A. = no activity; read-out: IC50 (μM) PAH
T4 construct: Full-length human TH isoform 1 (TH1), human PAH, human TPH2, and doubly truncated human TPH1; made in house; host or cells: E. coli TB1
T4 sequence (P00439 1-452): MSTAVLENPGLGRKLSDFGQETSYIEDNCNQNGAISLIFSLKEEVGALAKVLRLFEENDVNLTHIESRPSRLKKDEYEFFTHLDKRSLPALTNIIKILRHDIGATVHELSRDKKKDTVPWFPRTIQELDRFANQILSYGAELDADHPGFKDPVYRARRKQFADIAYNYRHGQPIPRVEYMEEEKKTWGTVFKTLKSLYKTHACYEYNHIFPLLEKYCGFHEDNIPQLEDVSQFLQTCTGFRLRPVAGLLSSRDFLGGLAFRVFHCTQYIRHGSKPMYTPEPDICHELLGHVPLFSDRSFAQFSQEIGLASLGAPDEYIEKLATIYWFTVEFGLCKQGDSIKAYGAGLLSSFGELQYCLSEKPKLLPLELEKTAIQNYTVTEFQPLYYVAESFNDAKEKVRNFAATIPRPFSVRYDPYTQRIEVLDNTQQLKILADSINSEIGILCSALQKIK

[7] = molecular target: T5, TPH1 (Homo sapiens, UniProt P17752); test: Differential scanning fluorimetry (DSF) thermal stability assay; assay type: binding; conditions: for Tm (°C) ± SD (°C), primary screen: 0.075 mg/mL TPH1, 0.5% DMSO, three independent measurements (a: duplicates); for Kd: estimated from DSF dose-response, 2% DMSO, read-out: apparent KD (μM), dose-response
T5 construct: doubly truncated human TPH1 (ΔNH102-ΔCOOH402); made in house; host or cells: E. coli BL21(DE3)

[8] = system: HDAC 1; conditions: cited from earlier work
[9] = system: PAH; conditions: proteome profiling study; cited from earlier work
[10] = system: TH; conditions: proteome profiling study; cited from earlier work
[11] = human recombinant HDAC, ref 1 (PMID: 26443078)

T5 sequence (P17752 102-402): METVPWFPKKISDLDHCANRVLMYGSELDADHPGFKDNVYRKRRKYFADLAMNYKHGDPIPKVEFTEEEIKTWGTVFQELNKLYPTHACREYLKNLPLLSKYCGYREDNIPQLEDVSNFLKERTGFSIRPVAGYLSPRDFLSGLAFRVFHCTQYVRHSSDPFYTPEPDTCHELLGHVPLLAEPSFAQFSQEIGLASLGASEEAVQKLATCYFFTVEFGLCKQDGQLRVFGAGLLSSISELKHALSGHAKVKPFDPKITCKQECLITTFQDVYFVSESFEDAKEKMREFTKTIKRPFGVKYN
T2 sequence (P17752 102-402, stated change not applied): as the sequence (P17752 102-402) above
T1 sequence (P07101 1-497 isoform P07101-3): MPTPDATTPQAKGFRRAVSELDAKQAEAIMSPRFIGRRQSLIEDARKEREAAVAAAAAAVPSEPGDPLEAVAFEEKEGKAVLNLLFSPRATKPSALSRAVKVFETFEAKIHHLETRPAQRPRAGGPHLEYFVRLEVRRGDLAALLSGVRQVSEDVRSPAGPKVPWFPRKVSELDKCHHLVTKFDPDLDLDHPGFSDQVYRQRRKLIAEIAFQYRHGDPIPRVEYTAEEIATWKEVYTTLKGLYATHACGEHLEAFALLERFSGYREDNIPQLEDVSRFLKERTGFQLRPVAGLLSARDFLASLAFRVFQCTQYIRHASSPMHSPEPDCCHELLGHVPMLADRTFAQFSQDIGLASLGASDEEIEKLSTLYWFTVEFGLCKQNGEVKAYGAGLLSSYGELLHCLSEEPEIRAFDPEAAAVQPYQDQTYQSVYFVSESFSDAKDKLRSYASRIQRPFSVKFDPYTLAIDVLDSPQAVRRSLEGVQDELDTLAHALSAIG

| SMILES | IC50 [1] | IC50 [2] [µM] | inhibition of TPH1 activity at 50 μM ([2]; compound 50 μM, 0.5% DMSO) | IC50 [3] [µM] | IC50 ([4]; ref 4 (PMID: 34392190)) [µM] | HDAC 6 % inhibition @ 1 μM ([5]; @ 1 μM, ref 4 (PMID: 34392190)) [%] | IC50 [6] | Tm (°C) ± SD (°C), primary screen ([7]; DSF, 50 μM compound) [°C] | ΔTm (°C) ± SD (°C), primary screen ([7]; DSF, 50 μM compound, vs averaged Tm of 0.5% DMSO controls) [°C] | Kd [7] [µM] | HDAC 1 % inhibition @ 1 μM ([8]; @ 1 μM, ref 4 (PMID: 34392190)) [%] | IC50 [9] [µM] | inhibition at 50 µM ([2]; compound 50 μM, 0.5% DMSO) [%] | IC50 [10] [µM] | IC50 ([4]; ref 1 (PMID: 26443078)) [µM] | IC50 [5, 11] [µM] | ΔTm at 50 µM ([7]; DSF, 50 μM compound, vs averaged Tm of 0.5% DMSO controls, read-out: ΔTm (°C) ± SD (°C), primary screen) [°C] | IC50 [8, 11] [µM] |
| --- | --- | --- | --- | --- | --- | --- | --- | --- | --- | --- | --- | --- | --- | --- | --- | --- | --- | --- |
| O=C(NO)c1ccc(Cl)c(C(=O)Nc2ccc(Cl)cc2)c1 [EG22, 4-Chloro-3-(4-chlorophenylcarbamoyl)-N-hydroxybenzamide] | 14.7 µM | 35.8 | more than 50% | 10.7 | 0.18 ± 0.05 | 94 ± 4 | 0.89 µM and 0.9 µM | 59.4 ± 0.3 | 3.9 ± 0.2 | 15.2 | 20 ± 1 | – | – | – | – | – | – | – |
| Cc1[nH]c2ccccc2c1CCNCc1ccc(/C=C/C(=O)NO)cc1 [panobinostat, reference compound] | 8.67 µM and 8.7 µM | […] | – | 43.6 | – | – | 0.57 µM and 0.6 µM | 56.0 ± 0.0 | – | 15.6 | – | […] | […] | 3.3 | […] | […] | […] | […] |
